This is an account of results in patent publication US10745357B2, “Process for preparing quinolin-2-yl-phenylamine derivatives and their salts” (priority 2016, dated 2020).

Each structure is given as a SMILES string. Converted amounts (≈) assume the structure as drawn.

Data set [1] can be described thus: Aqueous solubility in four aqueous buffers with distinct pH values. Format: physicochemical. Conditions: for solubility at 15 min / solubility at 1 h: thermodynamic from solid; for Solubility in aqueous solutions (in words): summary of the four buffers. As to the method:
The solubility properties of the generated solid states were studied in four different aqueous buffers with distinct pH values. Approximately 250 mg of each sample was mixed with 2.5 ml solvent and stirred.

Data set [2] in a line: Hygroscopicity by Dynamic Vapor Sorption Analysis (DVS). Format: physicochemical. The conditions noted are these: for Reversibility of water uptake / weight increase / Humidity absorption (in words) / Weight increase (hygroscopicity) / Changes of the crystalline form associated with water uptake: DVS; for Humidity absorption (in words): 0 to 95% RH; for Weight increase (hygroscopicity): humidity 0 to 95% RH, maximum. As to the method:
The hygroscopicity was determined by Dynamic Vapor Sorption Analysis (DVS). Approximately 200 mg of each solid state were weight on a sample plate and subjected to the apparatus. The humidity inside was varied in a range from 0 to 95% RH and the mass change (dm [%]) of the samples measured continuously.

For data set [3] the following is noted: phase I trials; dose levels up to 200 mg; without clinically significant abnormal results; cited from earlier work.
The subject of data set [4] is HIV. The conditions noted are these: preclinical; lasted for several weeks after cessation of treatment; cited from earlier work.
For data set [5], the system named is normal cellular splicing. The conditions noted are these: cited from earlier work.
For data set [6], the system named is HIV-1 replication. Conditions: prevents export of viral RNA from nucleus to cytoplasm in infected cells; cited from earlier work.
The mark [7] stands for this setting: aqueous buffer, fassif, FaSSiF (SIF-powder), 15 min.
Setting [8] is: aqueous buffer, fassif, FaSSiF (SIF-powder), 1 h.
Setting [9] is: aqueous buffer, pH 2.2, simulated gastric fluid, 0.01N HCl pH ~2.2, 15 min.
Setting [10] is: aqueous buffer, pH 2.2, simulated gastric fluid, 0.01N HCl pH ~2.2, 1 h.
Setting [11] is: aqueous buffer, pH 4.5, aqueous buffer, 20 mM Na-acetate pH 4.5, 15 min.
[12] abbreviates: aqueous buffer, pH 4.5, aqueous buffer, 20 mM Na-acetate pH 4.5, 1 h.
The mark [13] stands for this setting: aqueous buffer, pH 6.8, aqueous buffer, 50 mM KH2PO4 pH 6.8, 15 min.
[14] abbreviates: aqueous buffer, pH 6.8, aqueous buffer, 50 mM KH2PO4 pH 6.8, 1 h.

Broadly, the solubility is how much of the substance goes into solution per volume. For `FC(F)(F)Oc1ccc(Nc2ccc3cccc(Cl)c3n2)cc1.O=S(=O)(O)O` [H2SO4, (8-chloro-quinolin-2-yl)-(4-trifluoromethoxyphenyl)-amine], the solubility at 15 min in data set [1] (aqueous buffer, 20 mM Na-acetate pH 4.5, 15 min) was 93 µg/mL; in data set [1] (aqueous buffer, 50 mM KH2PO4 pH 6.8, 15 min) it was 35 µg/mL; in data set [1] (simulated gastric fluid, 0.01N HCl pH ~2.2, 15 min) it was 89 µg/mL; in data set [1] (FaSSiF (SIF-powder), 15 min), 109 µg/mL. For the same compound, the solubility at 1 h in data set [1] (aqueous buffer, 20 mM Na-acetate pH 4.5, 1 h) is 139 µg/mL; in data set [1] (aqueous buffer, 50 mM KH2PO4 pH 6.8, 1 h), 114 µg/mL; in data set [1] (simulated gastric fluid, 0.01N HCl pH ~2.2, 1 h), 152 µg/mL; in data set [1] (FaSSiF (SIF-powder), 1 h), 157 µg/mL. In data set [1], the “Solubility in aqueous solutions (in words)” value is given as “first-rate solubility”. Besides, the “Reversibility of water uptake / weight increase” value in data set [2] is given as “reversible”. Further, in data set [2], the “Humidity absorption (in words)” value was “low hygroscopicity”. The “Weight increase (hygroscopicity)” value in data set [2] is on record as at most 3.2%. Further, the “Relative weight change (dm)” value in data set [2] (RH 40% (start)) is reported as 0%; in data set [2] (RH 40 → 0% (first step to 0)) it was −0.11%; in data set [2] (RH 95 → 40% (desorption)) it was 0.03%; in data set [2] (RH → 0% (second step to 0)) it was −0.14%; in data set [2] (RH → 35% (final step)), −0.04%; in data set [2] (RH → 75%) it was 0.32%. Moreover, in data set [2] (RH → 95%), the “Relative weight change (dm)” value is recorded as 3.2%.
Turning to `Cl.FC(F)(F)Oc1ccc(Nc2ccc3cccc(Cl)c3n2)cc1` [HCl, (8-chloro-quinolin-2-yl)-(4-trifluoromethoxyphenyl)-amine], the solubility at 15 min was 111 µg/mL in data set [1] (setting [7]), 116 µg/mL in data set [1] (setting [9]), 74 µg/mL in data set [1] (setting [11]) and 68 µg/mL in data set [1] (setting [13]). The solubility at 1 h was 198 µg/mL in data set [1] (setting [8]), 147 µg/mL in data set [1] (setting [10]), 136 µg/mL in data set [1] (setting [12]) and 104 µg/mL in data set [1] (setting [14]). Further, the “Solubility in aqueous solutions (in words)” value in data set [1] is “first-rate solubility”. Besides, the “Changes of the crystalline form associated with water uptake” value (“Changes” below) in data set [2] is recorded as “significant changes”. For the same compound, the “Reversibility of water uptake / weight increase” value in data set [2] is given as “irreversible”. Further, the “Relative weight change (dm)” value in data set [2] (RH 40% (start)) was 0%; in data set [2] (RH 40 → 0% (first step to 0)), −0.11%; in data set [2] (RH 95 → 40% (desorption)), 7.8%; in data set [2] (RH → 0% (second step to 0)), 2.8%; in data set [2] (RH → 35% (final step)), 5.1%; in data set [2] (RH → 75%), 1.7%. In addition, in data set [2] (RH → 95%), the “Relative weight change (dm)” value came out at 14.3%.
As to `FC(F)(F)Oc1ccc(Nc2ccc3cccc(Cl)c3n2)cc1.O=S(=O)(O)c1ccccc1` [besylate, (8-chloro-quinolin-2-yl)-(4-trifluoromethoxyphenyl)-amine], the solubility at 15 min is 77 µg/mL in data set [1] (setting [7]), 23 µg/mL in data set [1] (setting [9]), 24 µg/mL in data set [1] (setting [11]) and 3 µg/mL in data set [1] (setting [13]). The solubility at 1 h was 45 µg/mL in data set [1] (setting [8]), 32 µg/mL in data set [1] (setting [10]), 16 µg/mL in data set [1] (setting [12]) and 7 µg/mL in data set [1] (setting [14]). In addition, in data set [2], the “Changes” value was “only minor”. In addition, the “Reversibility of water uptake / weight increase” value in data set [2] is “reversible”. Besides, the “Humidity absorption (in words)” value in data set [2] was “low hygroscopicity”. Further, in data set [2], the “Weight increase (hygroscopicity)” value is reported as “up to 1.9%”. The “Relative weight change (dm)” value is 0% in data set [2] (RH 40% (start)); −0.04% in data set [2] (RH 40 → 0% (first step to 0)); 1.1% in data set [2] (RH 95 → 40% (desorption)); −0.09% in data set [2] (RH → 0% (second step to 0)); 1.0% in data set [2] (RH → 35% (final step)); 0.19% in data set [2] (RH → 75%). For the same compound, in data set [2] (RH → 95%), the “Relative weight change (dm)” value turned out to be 1.9%.
Usually Solubility stands for how much of the substance goes into solution per volume. A lower Solubility goes with little dissolved substance. For `FC(F)(F)Oc1ccc(Nc2ccc3cccc(Cl)c3n2)cc1` [free base, (8-chloro-quinolin-2-yl)-(4-trifluoromethoxy-phenyl)-amine], the Solubility in data set [1] (0.01N HCl pH ~2.2, 15 min) came to 3 µg/mL (≈ 8.86 µM); in data set [1] (0.01N HCl pH ~2.2, 1 h), 4 µg/mL (≈ 11.8 µM). This compound also showed a solubility at 15 min in data set [1] (setting [7]) of 64 µg/mL (≈ 189 µM). The compound also gave a solubility at 1 h in data set [1] (setting [8]) of 61 µg/mL (≈ 180 µM). The “Solubility in aqueous solutions with different pH-values” in data set [1] (compound from reworked WO 2010/143169 procedure, recrystallized, pH values simulating physiological conditions) is recorded as “virtual insolubility”. In data set [2], the “Humidity absorption (in words)” value is “absorbs more or less not any humidity”. Moreover, the “Relative weight change (dm)” value was 0% in data set [2] (RH 40% (start)); 0% in data set [2] (RH 40 → 0% (first step to 0)); 0.03% in data set [2] (RH 95 → 40% (desorption)); 0.02% in data set [2] (RH → 0% (second step to 0)); 0.02% in data set [2] (RH → 35% (final step)); 0.02% in data set [2] (RH → 75%). Moreover, in data set [2] (RH → 95%), the “Relative weight change (dm)” value came out at 0.15%. Also, the Tolerability result in data set [3] was “well tolerated”. Besides, in data set [4], the “Reduction of viral load” value was “sustained reduction of viral load”. The “Selectivity / effect on normal cellular splicing” value in data set [5] is reported as “doesn't affect normal cellular splicing”. In addition, in data set [6], the HIV replication entry is “inhibits HIV replication”.
Consider `FC(F)(F)Oc1ccc(Nc2ccc3cccc(Cl)c3n2)cc1` [hemi-edisylate, (8-chloro-quinolin-2-yl)-(4-trifluoromethoxyphenyl)-amine], for which the Solubility in data set [1] (0.01N HCl pH ~2.2, 15 min) was 75 µg/mL (≈ 221 µM); in data set [1] (0.01N HCl pH ~2.2, 1 h), 65 µg/mL (≈ 192 µM). Further, the solubility at 15 min in data set [1] (setting [11]) was determined as 48 µg/mL (≈ 142 µM); in data set [1] (setting [13]), 18 µg/mL (≈ 53.1 µM). In addition, the solubility at 1 h in data set [1] (setting [12]) was found to be 50 µg/mL (≈ 148 µM); in data set [1] (setting [14]), 23 µg/mL (≈ 67.9 µM). The “Changes” value in data set [2] was “significant changes”. Also, in data set [2], the “Reversibility of water uptake / weight increase” value was “irreversible”. The “Relative weight change (dm)” value in data set [2] (RH 40% (start)) is 0%; in data set [2] (RH 40 → 0% (first step to 0), listed as Hemiedisylate salt) it was −0.65%; in data set [2] (RH 95 → 40% (desorption), listed as Hemiedisylate salt) it was 3.5%; in data set [2] (RH → 0% (second step to 0), listed as Hemiedisylate salt), 0.4%; in data set [2] (RH → 35% (final step), listed as Hemiedisylate salt), 2.9%; in data set [2] (RH → 75%, listed as Hemiedisylate salt) it was 0.74%. In addition, the “Relative weight change (dm)” value in data set [2] (RH → 95%, listed as Hemiedisylate salt) was 36.2%.
For the compound `Cc1ccc(S(=O)(=O)O)cc1.FC(F)(F)Oc1ccc(Nc2ccc3cccc(Cl)c3n2)cc1` [tosylate, (8-chloro-quinolin-2-yl)-(4-trifluoromethoxyphenyl)-amine], the solubility at 15 min in data set [1] (setting [7]) is 30 µg/mL; in data set [1] (setting [9]) it was 6 µg/mL. The solubility at 1 h in data set [1] (setting [8]) was 13 µg/mL; in data set [1] (setting [10]) it was 10 µg/mL; in data set [1] (setting [12]), 3 µg/mL. The “Humidity absorption (in words)” value in data set [2] is given as “absorbs more or less not any humidity”. Moreover, the “Relative weight change (dm)” value is reported as 0% in data set [2] (RH 40% (start)); −0.05% in data set [2] (RH 40 → 0% (first step to 0)); −0.03% in data set [2] (RH 95 → 40% (desorption)); −0.09% in data set [2] (RH → 0% (second step to 0)); −0.05% in data set [2] (RH → 35% (final step)); 0.05% in data set [2] (RH → 75%). In addition, the “Relative weight change (dm)” value in data set [2] (RH → 95%) is given as 0.24%.
